These results are taken from US7109244B2, “Compositions and methods comprising long-chain, straight-chain 2-amino-3-hydroxyalkanes” (priority 1997, dated 2006).

One data set relates to protein kinase C. The note with it: competing with diacylglycerol for the binding site; cited from earlier work.
Data set [1] has as its system L1210 murine lymphocytic leukemia cells. The data set is described as follows: L1210 morphological change (pointed cells). It is filed as cell-based. The note with it: for % Pointed Cells 1st: 27 h. How it is done: Referring to FIG. 1, in the L1210 assay some of the cells changed from being spherical (FIG. 1A) to ovoid with long points approximately […] apart (FIG. 1B). Several other forms have also been observed in assays of these extracts, including cells with points not […] apart (FIG. 1C), cells with more than two points (FIG. 1D), cells with a bulge (FIG. 1E) and cells with a bulge replacing one of the points (FIG. 1F). However, the form with two sharp, opposing points was by far the predominant and characteristic one observed. This type of morphological change had not previously been observed during the screening of over 1000 marine extracts.
As discussed above, the spisulosines caused a distinct morphological change in L1210 leukemia cells, in addition to cytotoxicity. This bioactivity, which was recorded as the percentage of living cells in which altered morphology was observed, could be observed sometimes as early as 13 h after the start of the assay and reached a maximum at 50–60 h, after which it decreased. […] The morphological effect was usually measured 30–35 h after the start of the assay and again about 24 h later, while the cytotoxicity was determined when the number of cells in the controls reached approximately 8000, usually in 3 days after the assay was begun. It should be noted that the pointed cells were live cells and that they were counted as such for the cytotoxicity reading. Also, assays in which 100% cytotoxicity was recorded may still have contained live cells (<0.5%) which may or may not have been pointed. All morphologically-changed cells were counted in the pointed cell percentage.
Morphologically-changed cells (FIGS. 1A–1F) were counted as living cells when determining the percent inhibition of growth. Morphological changes were assessed throughout the assay period. The percentage of pointed cells was determined by counting the number of altered cells in approximately 60 living cells. This percentage varied with the length of time the assay had been running. It generally reached its maximum about 50 hours after the start of the assay, but pointed cells could be observed as early as 13 hours after the start of the assay and could usually still be seen when the percent growth inhibition was measured. The percentages of pointed cells were often counted both after about 35 and after 55 hours. The time that this measurement was made is indicated with the data.

The test system is the same in data set [2]. Briefly: L1210 cytotoxicity assay (inhibition of growth). The format is cell-based. Here is the method:
The morphological effect was usually measured 30–35 h after the start of the assay and again about 24 h later, while the cytotoxicity was determined when the number of cells in the controls reached approximately 8000, usually in 3 days after the assay was begun. It should be noted that the pointed cells were live cells and that they were counted as such for the cytotoxicity reading. […] All morphologically-changed cells were counted in the pointed cell percentage.
Cytotoxicity assays against L1210 murine lymphocytic leukemia cells were performed by dissolving the samples in methanol and/or hexane were applied to the dry assay wells and the solvent was allowed to evaporate. Cells (1000) were added in minimum essential medium (MEM, 1 ml) and incubated 37° C. Inhibition of growth was recorded as the estimated percentage of living cells in sample wells versus that in control wells.

The test system of another data set is HL-60 cells. The note with it: cells treated with phorbol 12-myristate-13-acetate; cited from earlier work.
The test system of data set [3] is Chinese hamster ovary (CHO) cells. To be noted: cited from earlier work.
Data set [4] relates to Gram-positive and Gram-negative bacteria and fungi. To be noted: cited from earlier work.
In data set [5] the test system is Nippostrongylus brasiliensis. The note with it: cited from earlier work.
The next data set has as its system Vero cells. Briefly: effect of LPA on the action of spisulosine 285 in Vero cells (Example D). The format is cell-based. The text has this: LPA is known to increase the level of stress fibers in cells by activation of the Rho protein. The effect of LPA on cells treated with spisulosine 285, and untreated cells was examined. […]

Where two headings read alike, the source gives them in different places.

On to `CCCCCCCCCCCCC/C=C/[C@@H](O)[C@@H](N)CO` (relative stereo) [sphingosine, D-trans-erythro-sphingosine, reference compound], for which the “inhibition of protein kinase C” value in the data set with protein kinase C is on record as “potent inhibitor”. In addition, the “L1210 morphological alteration / pointed cell activity (in words)” value in data set [1] is listed as “no morphological effect”. The “% Pointed cells” value in data set [1] (0.1 μg/ml), in data set [1] (0.5 μg/ml), in data set [1] (1 μg/ml) and in data set [1] (5 μg/ml) was 0% throughout. Also, the “L1210 cytotoxicity (in words)” value in data set [2] was “moderate cytotoxicity”. In addition, the % Inhibition (as a rule, the share of the control response that was lost under treatment) amounted to 0% in data set [2] (0.1 μg/ml), 31% in data set [2] (0.5 μg/ml), 75% in data set [2] (1 μg/ml) and 100% in data set [2] (5 μg/ml). In addition, the “differentiation of HL-60 cells” value in the data set with HL-60 cells was “inhibit the differentiation”. In addition, the cytotoxicity result in data set [3] is “cytotoxic”.

Regarding `CCCCCCCCCCCCCCCCCCN` [Compound 131, stearylamine, reference compound], the “L1210 morphological alteration / pointed cell activity (in words)” value in data set [1] was “no morphological effect”. In addition, the “% Pointed cells” value in data set [1] (0.1 μg/ml), in data set [1] (0.5 μg/ml), in data set [1] (1 μg/ml) and in data set [1] (5 μg/ml) was 0% each time. For the same compound, the “L1210 cytotoxicity (in words)” value in data set [2] is recorded as “moderate cytotoxicity”. Besides, the inhibition at 0.1 µg/mL in data set [2] (Mus musculus, L1210, 0.1 μg/ml, read-out: % Inhibition) was found to be 0%. Also, the inhibition at […] in data set [2] (Mus musculus, L1210, 0.25 μg/ml, read-out: % Inhibition) was 0%; in data set [2] (Mus musculus, L1210, 2.5 μg/ml, read-out: % Inhibition), 96%. Also, the inhibition at 0.5 µg/mL in data set [2] (Mus musculus, L1210, 0.5 μg/ml, read-out: % Inhibition) worked out at 0%. In data set [2] (Mus musculus, L1210, 1 μg/ml, read-out: % Inhibition), the inhibition at 1 µg/mL came to 19%. The inhibition at 5 µg/mL in data set [2] (Mus musculus, L1210, 5 μg/ml, read-out: % Inhibition) was 99%. The cytotoxicity entry in data set [3] was “cytotoxic”.

On to `CCCCCCCCCCCCCCC[C@H](O)[C@H](C)N` [Compound 154, (2S,3S)-2-amino-3-octadecanol], for which the “% Pointed Cells 1st” value in data set [1] (0.1 μg/ml), in data set [1] (0.5 μg/ml), in data set [1] (1 μg/ml) and in data set [1] (5 μg/ml) was 0% throughout. In addition, the inhibition at 0.1 µg/mL in data set [2] (Mus musculus, L1210, 0.1 μg/ml, read-out: % Inhibitiion) stood at 0%. For the same compound, the inhibition at […] turned out to be 0% in data set [2] (Mus musculus, L1210, 0.25 μg/ml, read-out: % Inhibitiion) and 100% in data set [2] (Mus musculus, L1210, 2.5 μg/ml, read-out: % Inhibitiion). Moreover, in data set [2] (Mus musculus, L1210, 0.5 μg/ml, read-out: % Inhibitiion), the inhibition at 0.5 µg/mL worked out at 0%. The inhibition at 1 µg/mL in data set [2] (Mus musculus, L1210, 1 μg/ml, read-out: % Inhibitiion) was 63%. Besides, the inhibition at 5 µg/mL in data set [2] (Mus musculus, L1210, 5 μg/ml, read-out: % Inhibitiion) was 100%.

On to `CCCCCCCCCCCCC/C=C/[C@@H](O)[C@@H](N)COP(=O)(O)OCC[N+](C)(C)C` [Compound 163, reference compound], for which the “% Pointed cells” value in data set [1] (10 μg/ml), in data set [1] (25 μg/ml) and in data set [1] (50 μg/ml) was 0% throughout. In data set [2] (Mus musculus, L1210, 10 μg/ml), this compound registered an inhibition at 10 µg/mL of 38%. In addition, the inhibition at 25 µg/mL in data set [2] (Mus musculus, L1210, 25 μg/ml) is 50%. Moreover, in data set [2] (Mus musculus, L1210, 50 μg/ml), the inhibition at 50 µg/mL stood at 88%.

In the case of `CCCCCCCCCCCCCCC[C@@H](O)[C@@H](N)CO` [Compound 164, dihydrosphingosine], the cytotoxicity result in data set [3] is on record as “did not affect the cytotoxicity”.

Turning to `C=CCCCCCCCCCC(O)C(C)N` (centres unmarked) [Xestaminol A], the “activity against bacteria and fungi” value in data set [4] was “weak activity”. In addition, the antihelminthic activity entry in data set [5] is listed as “antihelminthic activity”.

Consider Lysophosphatidic acid [LPA], for which the “effect of LPA added prior to spisulosine on morphology” value in the data set on Vero cells (10 mM LPA 2 hours, then 0.5 mM spisulosine 285 for 18 hours) is recorded as “prevents the morphological change promoted by spisulosine”. Moreover, in the data set on Vero cells (10 mM LPA, 2 hours), the level of actin entry is “increasing the level of actin”.
